Nine molecules from ChEMBL document CHEMBL3865846, “Synthesis and biological evaluation of ricinoleic acid-based lipoamino acid derivatives” (Bioorg Med Chem Lett, 2016) can be followed below.

Values after ≈ are worked out from the molar mass of the structure shown. Where only a bound is given, the exact number is not on record here.

Common to all, as to format: functional
The test system of test [1] is Staphylococcus aureus. The experiment in a line: Bactericidal activity against Staphylococcus aureus MTCC96 measured after 24 hrs. Conditions: MTCC96, 24 h.
In test [2] the test system is Candida albicans. Put plainly: Antimicrobial activity against Candida albicans MTCC3017 measured after 24 hrs by well-diffusion method. Conditions: MTCC3017, 24 h. For orientation: A growth-free zone around the sample is the usual read-out of agar diffusion tests.
Test [3] relates to Candida albicans. The experiment in a line: Antimicrobial activity against Candida albicans MTCC227 measured after 24 hrs by well-diffusion method. Conditions: MTCC227, 24 h.
Test [4] deals with Candida albicans. Put plainly: Antimicrobial activity against Candida albicans MTCC854 measured after 24 hrs by well-diffusion method. Conditions: MTCC854, 24 h.
In test [5] the test system is Staphylococcus aureus. Put plainly: Antimicrobial activity against Staphylococcus aureus MTCC96 measured after 24 hrs by well-diffusion method. Conditions: MTCC96, 24 h.
The test system of test [6] is Raoultella planticola. The experiment in a line: Antimicrobial activity against Klebsiella planticola MTCC530 measured after 24 hrs by well-diffusion method. Conditions: MTCC530, 24 h.
For test [7], the system named is Candida albicans. The experiment in a line: Antimicrobial activity against Candida albicans MTCC183 measured after 24 hrs by well-diffusion method. Conditions: MTCC183, 24 h.
The test system of test [8] is Bacillus subtilis. The experiment in a line: Antimicrobial activity against Bacillus subtilis MTCC121 measured after 24 hrs by well-diffusion method. Conditions: MTCC121, 24 h.
The test system of test [9] is Candida albicans. Put plainly: Antimicrobial activity against Candida albicans MTCC4748 measured after 24 hrs by well-diffusion method. Conditions: MTCC4748, 24 h.
In test [10] the test system is Staphylococcus aureus. Put plainly: Antimicrobial activity against Staphylococcus aureus MLS16 MTCC2940 measured after 24 hrs by well-diffusion method. Conditions: MLS16 MTCC2940, 24 h.
Test [11] concerns Micrococcus luteus. Put plainly: Bactericidal activity against Micrococcus luteus MTCC2470 measured after 24 hrs. Conditions: MTCC2470, 24 h.
Test [12] relates to Micrococcus luteus. Put plainly: Antimicrobial activity against Micrococcus luteus MTCC2470 measured after 24 hrs by well-diffusion method. Conditions: MTCC2470, 24 h.
Test [13] has as its system Candida albicans. Put plainly: Antimicrobial activity against Candida albicans MTCC3018 measured after 24 hrs by well-diffusion method. Conditions: MTCC3018, 24 h.
Test [14] relates to Pseudomonas aeruginosa. The experiment in a line: Antimicrobial activity against Pseudomonas aeruginosa MTCCM2453 measured after 24 hrs by well-diffusion method. Conditions: MTCCM2453, 24 h.
Test [15] has as its system Bacillus subtilis. The experiment in a line: Bactericidal activity against Bacillus subtilis MTCC121 measured after 24 hrs. Conditions: MTCC121, 24 h.
Test [16] relates to Candida albicans. The experiment in a line: Antimicrobial activity against Candida albicans MTCC1637 measured after 24 hrs by well-diffusion method. Conditions: MTCC1637, 24 h.
Test [17] concerns Escherichia coli. The experiment in a line: Antimicrobial activity against Escherichia coli MTCC739 measured after 24 hrs by well-diffusion method. Conditions: MTCC739, 24 h.
Test [18] has as its system Candida albicans. The experiment in a line: Antimicrobial activity against Candida albicans MTCC3958 measured after 24 hrs by well-diffusion method. Conditions: MTCC3958, 24 h.
For test [19], the system named is Candida albicans. The experiment in a line: Antimicrobial activity against Candida albicans MTCC7315 measured after 24 hrs by well-diffusion method. Conditions: MTCC7315, 24 h.
Test [20] has as its system Staphylococcus aureus. Put plainly: Bactericidal activity against Staphylococcus aureus MLS16 MTCC2940 measured after 24 hrs. Conditions: MLS16 MTCC2940, 24 h.
Test [21] deals with Candida parapsilosis. Put plainly: Antimicrobial activity against Candida parapsilosis MTCC1744 measured after 24 hrs by well-diffusion method. Conditions: Lodderomyces parapsilosis, MTCC1744, 24 h.
Test [22] has as its system Nakaseomyces glabratus. Put plainly: Antimicrobial activity against Candida glabrata MTCC3019 measured after 24 hrs by well-diffusion method. Conditions: MTCC3019, 24 h.
The test system of test [23] is Pichia sporocuriosa. The experiment in a line: Antimicrobial activity against Issatchenkia hanoiensis MTCC4755 measured after 24 hrs by well-diffusion method. Conditions: MTCC4755, 24 h.
Test [24] concerns Pichia kudriavzevii. The experiment in a line: Antimicrobial activity against Candida krusei MTCC3020 measured after 24 hrs by well-diffusion method. Conditions: MTCC3020, 24 h.

By MBC is commonly meant the lowest tested concentration that kills the bacteria rather than only halting them. What is called MIC is the lowest concentration found to suppress growth. Take `CCCCCCC(C/C=C\CCCCCCCC(=O)OC)NC(=O)[C@@H]1CCCN1` (stereo not given in full): the MBC in [1], in test [11], in test [15] and in test [20] was 31.2 µg/mL (≈ 76.4 µM) each time. Moreover, the MIC was 31.2 µg/mL (≈ 76.4 µM) in test [2]; 31.2 µg/mL (≈ 76.4 µM) in test [3]; 31.2 µg/mL (≈ 76.4 µM) in test [4]; 15.6 µg/mL (≈ 38.2 µM) in [5]; above 125 µg/mL in test [6]; 31.2 µg/mL (≈ 76.4 µM) in [7]. Also, the minimal inhibitory concentration (MIC) was 15.6 µg/mL (≈ 38.2 µM) in test [8]; 31.2 µg/mL (≈ 76.4 µM) in test [9]; 31.2 µg/mL (≈ 76.4 µM) in test [10]; 15.6 µg/mL (≈ 38.2 µM) in [12]; 31.2 µg/mL (≈ 76.4 µM) in test [13]; above 125 µg/mL in [14]. Also, the MIC is 31.2 µg/mL (≈ 76.4 µM) in test [16], above 125 µg/mL in test [17], 31.2 µg/mL (≈ 76.4 µM) in test [18] and 31.2 µg/mL (≈ 76.4 µM) in [19].
Regarding `CCCCCCC(C/C=C\CCCCCCCC(=O)OC)NC(=O)[C@@H](N)CC(C)C` (stereo not given in full), the MIC in test [2], in test [3], in test [4], in test [5], in [6] and in test [7] was above 125 µg/mL throughout. Further, the MIC in test [8], in test [9], in test [10], in test [12], in [13] and in test [14] was above 125 µg/mL throughout. The MIC in test [16], in [17], in test [18] and in test [19] was above 125 µg/mL each time.
Turning to `CCCCCCC(C/C=C\CCCCCCCC(=O)OC)NC(=O)[C@@H](N)Cc1ccccc1` (stereo not given in full), the MIC in test [2], in test [3], in test [4], in [5], in [6] and in test [7] was above 125 µg/mL in each case. The MIC in [8], in [9], in test [10], in test [12], in test [13] and in test [14] was above 125 µg/mL throughout. The MIC in test [16], in [17], in [18] and in [19] was above 125 µg/mL in each case.
Consider `CCCCCCC(C/C=C\CCCCCCCC(=O)OC)NC(=O)[C@@H](N)Cc1c[nH]c2ccccc12` (stereo not given in full), for which the MIC in test [2], in [3], in [4], in test [5], in test [6] and in [7] was above 125 µg/mL each time. For the same molecule, the minimal inhibitory concentration (MIC) in test [8], in test [9], in [10], in test [12], in [13] and in test [14] was above 125 µg/mL in each case. The MIC in test [16], in [17], in test [18] and in test [19] was above 125 µg/mL in each case.
Regarding `CCCCCCC(C/C=C\CCCCCCCC(=O)OC)NC(=O)[C@@H](N)C(C)C` (stereo not given in full), the MIC in [2], in test [3], in test [4], in [5], in test [6] and in test [7] was above 125 µg/mL throughout. The minimum inhibitory concentration (MIC) in test [8], in test [9], in [10], in test [12], in test [13] and in test [14] was above 125 µg/mL each time. The MIC in test [16], in [17], in test [18] and in [19] was above 125 µg/mL each time.
Take `CCCCCCC(C/C=C\CCCCCCCC(=O)OC)NC(=O)[C@H](C)N` (stereo not given in full): the MBC in test [1], in test [11], in test [15] and in test [20] was 15.6 µg/mL (≈ 40.8 µM) in each case. Also, the MIC was 15.6 µg/mL (≈ 40.8 µM) in test [2]; 15.6 µg/mL (≈ 40.8 µM) in [3]; 15.6 µg/mL (≈ 40.8 µM) in test [4]; 7.8 µg/mL (≈ 20.4 µM) in test [5]; above 125 µg/mL in [6]; 15.6 µg/mL (≈ 40.8 µM) in test [7]. The MIC in test [8] is 15.6 µg/mL (≈ 40.8 µM); in [9], 15.6 µg/mL (≈ 40.8 µM); in test [10], 15.6 µg/mL (≈ 40.8 µM); in test [12] it was 31.2 µg/mL (≈ 81.5 µM); in test [13], 15.6 µg/mL (≈ 40.8 µM); in [14], above 125 µg/mL. For the same molecule, the MIC in test [21] is 7.8 µg/mL (≈ 20.4 µM); in test [16], 15.6 µg/mL (≈ 40.8 µM); in test [17], above 125 µg/mL; in [18], 7.8 µg/mL (≈ 20.4 µM); in test [19], 15.6 µg/mL (≈ 40.8 µM).
As to `CCCCCCC(C/C=C\CCCCCCCC(=O)OC)NC(=O)[C@@H](N)[C@@H](C)CC` (stereo not given in full), the MIC in test [2], in test [3], in test [4], in test [5], in [6] and in test [7] was above 125 µg/mL throughout. Also, the MIC in test [8], in test [9], in test [10], in [12], in test [13] and in [14] was above 125 µg/mL in each case. For the same molecule, the MIC in test [16], in test [17], in test [18] and in test [19] was above 125 µg/mL each time.
With `O=C(O)c1cn(C2CC2)c2cc(N3CCNCC3)c(F)cc2c1=O` [CIPROFLOXACIN], the MBC in [1], in test [11], in [15] and in test [20] was 0.7 to 1.9 µg/mL (≈ 2.11 to 5.73 µM) each time. The MIC in [5], in test [6], in [8], in test [10], in test [12] and in test [14] was 0.9 µg/mL (≈ 2.72 µM) throughout. Moreover, the MIC in test [17] amounted to 0.9 µg/mL (≈ 2.72 µM).
As for `Clc1ccc(COC(Cn2ccnc2)c2ccc(Cl)cc2Cl)c(Cl)c1` (stereo not given) [MICONAZOLE], the MIC in test [2], in [3], in [4], in [22], in [7] and in test [9] was 7.8 µg/mL (≈ 18.7 µM) throughout. For the same molecule, the MIC in test [23], in test [13], in test [21], in test [16], in [18] and in test [24] was 7.8 µg/mL (≈ 18.7 µM) throughout. For the same molecule, inhibition of growth in test [19] (MIC) required 7.8 µg/mL (≈ 18.7 µM).
